Holding throughout (type): cell-based
For one assay, the target named is T1, hNaV1.5 (Homo sapiens, UniProt Q14524).
T1 construct: expressed in transfected cells; host or cells: HEK 293 cells, transient transfection
Kind of assay: Whole-cell patch-clamp inhibition of hNaV1.5 in HEK 293 cells. The text has this:
(§1) Using whole-cell voltage clamp recording techniques, currents were elicited by a 50-ms depolarizing potential of −10 mV from a holding potential of −100 mV every 5 s. […] The time constants for these inhibitions were 34.01 ± 6.81 and 34.24 ± 8.13 s, respectively (Figure 1a,d). […] Dose-response curves for NaV1 subtypes tested are summarized in Figure 1e and consist of at least three data points for each concentration.
All the voltage gated sodium channels subtypes (hNaV1.3, rNaV1.4, hNaV1.5 and hNaV1.7), along with β1 subunit to increase the current density and green fluorescent protein to serve as the report protein, were individually transiently transfected into HEK 293 cells using the lipofectamine 2000 (Invitrogen, Carlsbad, CA, USA) according to its manufacturer’s instructions. […] At 36–72 h after transfection, cells with green fluorescence were selected for whole-cell patch-clamp recording at room temperature. […]
Sodium currents were recorded on experimental cells using whole-cell patch-clamp techniques at room temperature (20–25 °C). […] Experimental data were acquired and analyzed using the programs Clampfit 10.0 (Axon Instruments, Irvine, CA, USA) and Sigmaplot 90 (Sigma, St. Louis, MO, USA). […]
Data were analyzed using the Clampfit (Molecular Devices, Irvine, CA, USA) and Sigmaplot 10.0 (Sigma, St. Louis, MO, USA) software programs. […]
(Patch clamp records ionic current or voltage across a cell membrane.)

For another assay, the target named is T2, rNaV1.4 (Rattus norvegicus, UniProt P15390).
T2 construct: expressed in transfected cells; host or cells: HEK 293 cells, transient transfection
T2 sequence (P15390 whole entry): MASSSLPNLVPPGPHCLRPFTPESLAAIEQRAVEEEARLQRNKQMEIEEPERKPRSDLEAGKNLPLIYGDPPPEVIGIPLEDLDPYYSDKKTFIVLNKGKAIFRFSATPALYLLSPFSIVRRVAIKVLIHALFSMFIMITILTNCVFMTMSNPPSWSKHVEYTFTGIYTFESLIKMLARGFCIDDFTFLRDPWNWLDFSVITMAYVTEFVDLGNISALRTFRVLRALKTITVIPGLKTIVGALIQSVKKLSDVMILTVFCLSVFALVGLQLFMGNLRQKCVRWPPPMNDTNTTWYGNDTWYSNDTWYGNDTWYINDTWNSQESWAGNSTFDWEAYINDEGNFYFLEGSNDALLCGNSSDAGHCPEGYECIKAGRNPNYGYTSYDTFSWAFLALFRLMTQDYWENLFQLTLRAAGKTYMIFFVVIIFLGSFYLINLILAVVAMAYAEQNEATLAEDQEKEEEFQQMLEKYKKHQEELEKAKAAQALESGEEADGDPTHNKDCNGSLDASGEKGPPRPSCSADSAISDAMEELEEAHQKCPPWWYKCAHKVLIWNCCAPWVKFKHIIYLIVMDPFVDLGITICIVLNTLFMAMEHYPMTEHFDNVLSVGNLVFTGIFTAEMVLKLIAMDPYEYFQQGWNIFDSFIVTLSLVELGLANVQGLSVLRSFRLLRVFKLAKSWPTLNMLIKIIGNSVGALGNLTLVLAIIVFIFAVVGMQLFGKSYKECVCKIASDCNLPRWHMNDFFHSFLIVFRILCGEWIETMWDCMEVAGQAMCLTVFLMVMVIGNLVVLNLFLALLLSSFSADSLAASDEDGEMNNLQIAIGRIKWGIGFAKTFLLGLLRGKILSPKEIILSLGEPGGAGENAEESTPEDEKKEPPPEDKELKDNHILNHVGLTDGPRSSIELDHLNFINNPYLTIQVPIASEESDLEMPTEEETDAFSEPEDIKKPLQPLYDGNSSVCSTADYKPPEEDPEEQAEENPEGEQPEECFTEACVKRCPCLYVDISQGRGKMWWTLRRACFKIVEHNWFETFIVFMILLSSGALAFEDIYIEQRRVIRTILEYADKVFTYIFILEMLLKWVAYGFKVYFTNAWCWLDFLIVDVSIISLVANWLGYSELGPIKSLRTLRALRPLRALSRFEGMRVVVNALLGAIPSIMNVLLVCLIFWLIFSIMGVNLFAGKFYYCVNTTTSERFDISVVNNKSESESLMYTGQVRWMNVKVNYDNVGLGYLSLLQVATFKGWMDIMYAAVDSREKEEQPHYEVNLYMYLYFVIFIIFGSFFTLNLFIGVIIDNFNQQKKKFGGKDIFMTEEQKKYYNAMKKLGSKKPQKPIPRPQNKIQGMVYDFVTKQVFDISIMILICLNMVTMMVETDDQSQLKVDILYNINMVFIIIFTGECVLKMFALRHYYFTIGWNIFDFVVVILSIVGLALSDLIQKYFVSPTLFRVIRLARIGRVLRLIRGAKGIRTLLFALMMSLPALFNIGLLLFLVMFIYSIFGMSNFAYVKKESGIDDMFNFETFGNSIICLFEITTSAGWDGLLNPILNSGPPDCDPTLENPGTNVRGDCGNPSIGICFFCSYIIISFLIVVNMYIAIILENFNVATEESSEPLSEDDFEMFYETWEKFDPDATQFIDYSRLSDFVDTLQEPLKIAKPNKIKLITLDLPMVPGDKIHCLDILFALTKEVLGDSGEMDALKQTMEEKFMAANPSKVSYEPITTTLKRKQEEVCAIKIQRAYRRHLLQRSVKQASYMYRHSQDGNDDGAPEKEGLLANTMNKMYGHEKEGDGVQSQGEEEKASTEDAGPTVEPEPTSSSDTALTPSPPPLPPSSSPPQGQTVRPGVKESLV
T2 sequence (Q07699 19-218, further chain): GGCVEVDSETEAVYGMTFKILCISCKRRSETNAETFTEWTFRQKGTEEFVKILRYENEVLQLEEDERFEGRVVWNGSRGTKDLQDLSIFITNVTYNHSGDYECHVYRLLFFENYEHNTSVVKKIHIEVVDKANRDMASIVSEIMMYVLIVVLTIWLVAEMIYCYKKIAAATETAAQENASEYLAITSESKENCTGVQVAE
Kind of assay: Whole-cell patch-clamp inhibition of rNaV1.4 in HEK 293 cells. Particulars: HEK 293 cells with β1 subunit, 50-ms depolarization to −10 mV from −100 mV every 5 s, Hill fit, mean ± S.E., room temperature.
From the text: as §1
After purification, we characterized the interaction of each mutant toxin with NaV1.4. Under whole-cell patch clamp configuration, rNaV1.4 current was elicited by a 50-ms depolarizing potential of −10 mV from a holding potential of −100 mV every 5 s.
All the voltage gated sodium channels subtypes (hNaV1.3, rNaV1.4, hNaV1.5 and hNaV1.7), along with β1 subunit to increase the current density and green fluorescent protein to serve as the report protein, were individually transiently transfected into HEK 293 cells using the lipofectamine 2000 (Invitrogen, Carlsbad, CA, USA) according to its manufacturer’s instructions. HEK293 cells were cultured under standard cell culture condition (5% CO2; 37 °C) in DMEM supplemented with 10% FBS. At 36–72 h after transfection, cells with green fluorescence were selected for whole-cell patch-clamp recording at room temperature. The pipette solution contained (in mM): 140 CsF, 10 NaCl, 10 HEPES and 1 EGFA, pH7.3. The bathing solution contained (in mM): 140 NaCl, 10 HEPES, 3 KCl, 1 MgCl2 and 1 CaCl2, pH7.3.
Sodium currents were recorded on experimental cells using whole-cell patch-clamp techniques at room temperature (20–25 °C). Patch pipettes with DC resistance of 2~3 MΩ were fabricated from borosilicate glass tubing (VWR micropipettes; VWR Co., West Chester, PA, USA) using a two-stage vertical microelectrode puller (PC-10; Narishige, Tokyo, Japan) and fire-polished by a heater (Narishige, Tokyo, Japan). Whole-cell patch-clamp recordings were performed by an Axon 700B patch-clamp amplifier (Axon Instruments, Irvine, CA, USA). The P/4 protocol was used to subtract linear capacitive and leakage currents. Experimental data were acquired and analyzed using the programs Clampfit 10.0 (Axon Instruments, Irvine, CA, USA) and Sigmaplot 90 (Sigma, St. Louis, MO, USA).
Before use, the solution was diluted to the concentration of interest with fresh bathing solution. Toxin was introduced into the recording chamber (volume of 300 μL) and mixed by repeatedly pipetting 30 μL to achieve the demanded final concentration. The mixing process typically took ~5 s.
Data were analyzed using the Clampfit (Molecular Devices, Irvine, CA, USA) and Sigmaplot 10.0 (Sigma, St. Louis, MO, USA) software programs. All data points are shown as mean ± S.E. n is the number of the separated experimental cells. […] The Hill coefficient was set to 1 except where indicated. The box plots were generated at http://boxplot.tyerslab.com. In the box plots, center lines show the medians; box limits indicate the 25th and 75th percentiles as determined by R software; whiskers extend 1.5 times the interquartile range from the 25th and 75th percentiles, outliers are represented by dots. Time courses were fitted by using single exponential decay function.

Another assay deals with T3, hNaV1.3 (Homo sapiens, UniProt Q9NY46).
T3 construct: expressed in transfected cells; host or cells: HEK 293 cells, transient transfection
Kind of assay: Whole-cell patch-clamp inhibition of hNaV1.3 in HEK 293 cells. Particulars: 100 nM toxin, approximate.

The next assay has as its target T4, hNaV1.7 (Homo sapiens, UniProt Q15858).
T4 construct: expressed in transfected cells; host or cells: HEK 293 cells, transient transfection
Briefly: Whole-cell patch-clamp inhibition of hNaV1.7 in HEK 293 cells. Particulars: 100 nM toxin, approximate.

Where [1] appears, read: read-out: IC50 on rNaV1.4 (alanine mutants).

Where two headings read alike, the source gives them in different places.

T1 sequence (Q14524 whole entry): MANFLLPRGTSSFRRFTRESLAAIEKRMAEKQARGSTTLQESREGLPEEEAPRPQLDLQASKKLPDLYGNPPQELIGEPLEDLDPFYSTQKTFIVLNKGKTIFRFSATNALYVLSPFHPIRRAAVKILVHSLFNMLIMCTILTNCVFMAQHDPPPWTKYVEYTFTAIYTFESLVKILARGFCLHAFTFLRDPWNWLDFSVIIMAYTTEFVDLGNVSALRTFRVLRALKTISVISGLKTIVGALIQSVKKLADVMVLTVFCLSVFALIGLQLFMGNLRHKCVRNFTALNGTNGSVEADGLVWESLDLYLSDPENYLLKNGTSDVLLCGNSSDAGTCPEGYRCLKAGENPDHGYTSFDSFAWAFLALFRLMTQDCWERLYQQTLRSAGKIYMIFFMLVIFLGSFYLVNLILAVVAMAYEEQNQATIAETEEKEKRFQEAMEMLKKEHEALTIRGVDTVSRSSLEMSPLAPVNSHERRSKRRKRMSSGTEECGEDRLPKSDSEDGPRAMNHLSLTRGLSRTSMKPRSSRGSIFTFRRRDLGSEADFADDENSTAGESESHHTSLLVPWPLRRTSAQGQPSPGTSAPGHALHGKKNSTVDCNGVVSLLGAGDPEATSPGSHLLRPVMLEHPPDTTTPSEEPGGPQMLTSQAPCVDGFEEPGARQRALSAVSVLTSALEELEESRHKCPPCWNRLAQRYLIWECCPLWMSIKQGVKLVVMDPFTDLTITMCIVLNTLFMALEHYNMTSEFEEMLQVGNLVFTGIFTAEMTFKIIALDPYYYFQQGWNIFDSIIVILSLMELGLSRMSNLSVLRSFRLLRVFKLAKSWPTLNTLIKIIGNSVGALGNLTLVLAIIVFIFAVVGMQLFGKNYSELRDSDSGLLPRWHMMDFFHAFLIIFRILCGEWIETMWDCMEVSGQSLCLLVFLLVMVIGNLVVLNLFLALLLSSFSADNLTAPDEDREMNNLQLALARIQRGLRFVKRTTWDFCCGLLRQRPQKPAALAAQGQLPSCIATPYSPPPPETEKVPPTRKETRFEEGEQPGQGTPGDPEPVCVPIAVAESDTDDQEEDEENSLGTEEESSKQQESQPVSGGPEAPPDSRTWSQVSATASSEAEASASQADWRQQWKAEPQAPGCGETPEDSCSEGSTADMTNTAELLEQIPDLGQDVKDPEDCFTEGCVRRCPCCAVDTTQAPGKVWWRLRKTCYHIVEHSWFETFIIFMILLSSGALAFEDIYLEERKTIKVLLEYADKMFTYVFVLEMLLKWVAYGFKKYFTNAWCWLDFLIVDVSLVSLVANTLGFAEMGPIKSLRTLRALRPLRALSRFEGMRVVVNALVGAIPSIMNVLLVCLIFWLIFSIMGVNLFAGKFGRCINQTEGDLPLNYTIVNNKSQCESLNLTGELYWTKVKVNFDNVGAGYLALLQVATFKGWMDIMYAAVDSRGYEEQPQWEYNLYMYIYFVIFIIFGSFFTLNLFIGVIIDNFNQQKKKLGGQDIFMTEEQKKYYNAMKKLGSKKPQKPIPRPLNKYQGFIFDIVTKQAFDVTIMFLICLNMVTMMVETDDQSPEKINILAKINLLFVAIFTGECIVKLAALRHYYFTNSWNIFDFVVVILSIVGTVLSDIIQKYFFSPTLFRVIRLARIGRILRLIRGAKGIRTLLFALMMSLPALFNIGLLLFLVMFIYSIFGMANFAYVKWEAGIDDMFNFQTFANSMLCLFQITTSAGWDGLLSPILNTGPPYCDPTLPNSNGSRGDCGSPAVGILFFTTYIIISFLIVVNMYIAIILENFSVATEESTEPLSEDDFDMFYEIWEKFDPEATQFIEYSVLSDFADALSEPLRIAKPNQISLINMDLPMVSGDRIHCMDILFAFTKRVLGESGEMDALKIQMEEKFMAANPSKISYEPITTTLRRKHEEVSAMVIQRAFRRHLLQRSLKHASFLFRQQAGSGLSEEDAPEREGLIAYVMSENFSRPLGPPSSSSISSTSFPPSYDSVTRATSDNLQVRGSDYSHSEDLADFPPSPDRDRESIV

Usually IC50 stands for the concentration that inhibits the measured activity by half. For the compound `CC[C@H](C)[C@H](NC(=O)[C@@H](NC(=O)[C@H](CCCCN)NC(=O)[C@H](CCCNC(=N)N)NC(=O)[C@@H]1CSSC[C@@H]2NC(=O)[C@H](C)NC(=O)[C@H](CCCNC(=N)N)NC(=O)[C@H](CCCCN)NC(=O)[C@H](CO)NC(=O)[C@H](CC(=O)O)NC(=O)[C@@H]3CSSC[C@H](NC(=O)[C@H](CCCNC(=N)N)NC(=O)[C@H](CC(C)C)NC(=O)CNC(=O)[C@H](CCC(=O)O)NC(=O)[C@H](CSSC[C@H](NC(=O)[C@@H](N)Cc4ccc(O)cc4)C(=O)N[C@@H](CCC(N)=O)C(=O)N[C@@H](CCCCN)C(=O)N[C@@H](Cc4c[nH]c5ccccc45)C(=O)N[C@@H](CCSC)C(=O)N[C@@H](Cc4c[nH]c5ccccc45)C(=O)N[C@@H]([C@@H](C)O)C(=O)N3)NC2=O)C(=O)N[C@@H](CCCCN)C(=O)N[C@@H](CC(C)C)C(=O)N[C@@H](Cc2c[nH]c3ccccc23)C(=O)N1)[C@@H](C)CC)C(N)=O` [JZTX-V], the “decrease of hNaV1.5 activation (peak current)” value at hNaV1.5 (500 nM toxin, n = 8, −10 mV from −100 mV) is listed as 43% ± 6.5%. Further, the IC50 on hNaV1.5 (HEK 293 cells with β1 subunit, 50-ms depolarization to −10 mV from −100 mV every 5 s, Hill fit, mean ± S.E., three to six cells, room temperature) came out at 2700 ± 779 nM; on rNaV1.4 (three to six cells, read-out: IC50 on rNaV1.4), 5.12 ± 0.87 nM. For the same compound, the “inhibition of hNaV1.3 inward current (Figure 1c)” value against hNaV1.3 is on record as around 35%. In addition, on hNaV1.7, the “inhibition of hNaV1.7 inward current (Figure 1b)” value is “approximately 45%”.

With `CC[C@H](C)[C@H](NC(=O)[C@@H](NC(=O)[C@H](CCCCN)NC(=O)[C@H](CCCNC(=N)N)NC(=O)[C@@H]1CSSC[C@@H]2NC(=O)[C@H](C)NC(=O)[C@H](CCCNC(=N)N)NC(=O)[C@H](CCCCN)NC(=O)[C@H](CO)NC(=O)[C@H](CC(=O)O)NC(=O)[C@@H]3CSSC[C@H](NC(=O)[C@H](CCCNC(=N)N)NC(=O)[C@H](CC(C)C)NC(=O)CNC(=O)[C@H](CCC(=O)O)NC(=O)[C@H](CSSC[C@H](NC(=O)[C@@H](N)Cc4ccc(O)cc4)C(=O)N[C@@H](CCC(N)=O)C(=O)N[C@@H](CCCCN)C(=O)N[C@@H](C)C(=O)N[C@@H](CCSC)C(=O)N[C@@H](Cc4c[nH]c5ccccc45)C(=O)N[C@@H]([C@@H](C)O)C(=O)N3)NC2=O)C(=O)N[C@@H](CCCCN)C(=O)N[C@@H](CC(C)C)C(=O)N[C@@H](Cc2c[nH]c3ccccc23)C(=O)N1)[C@@H](C)CC)C(N)=O` [W5A], the IC50 at rNaV1.4 (setting [1]) was 313 ± 260 nM.

As to `CC[C@H](C)[C@H](NC(=O)[C@@H](NC(=O)[C@H](CCCCN)NC(=O)[C@H](CCCNC(=N)N)NC(=O)[C@@H]1CSSC[C@@H]2NC(=O)[C@H](C)NC(=O)[C@H](CCCNC(=N)N)NC(=O)[C@H](CCCCN)NC(=O)[C@H](CO)NC(=O)[C@H](CC(=O)O)NC(=O)[C@@H]3CSSC[C@H](NC(=O)[C@H](CCCNC(=N)N)NC(=O)[C@H](CC(C)C)NC(=O)CNC(=O)[C@H](CCC(=O)O)NC(=O)[C@H](CSSC[C@H](NC(=O)[C@@H](N)Cc4ccc(O)cc4)C(=O)N[C@@H](CCC(N)=O)C(=O)N[C@@H](CCCCN)C(=O)N[C@@H](Cc4c[nH]c5ccccc45)C(=O)N[C@@H](C)C(=O)N[C@@H](Cc4c[nH]c5ccccc45)C(=O)N[C@@H]([C@@H](C)O)C(=O)N3)NC2=O)C(=O)N[C@@H](CCCCN)C(=O)N[C@@H](CC(C)C)C(=O)N[C@@H](Cc2c[nH]c3ccccc23)C(=O)N1)[C@@H](C)CC)C(N)=O` [M6A], on rNaV1.4 (setting [1]), the IC50 is 252 ± 450 nM.

For `CC[C@H](C)[C@H](NC(=O)[C@@H](NC(=O)[C@H](CCCCN)NC(=O)[C@H](CCCNC(=N)N)NC(=O)[C@@H]1CSSC[C@@H]2NC(=O)[C@H](C)NC(=O)[C@H](CCCNC(=N)N)NC(=O)[C@H](CCCCN)NC(=O)[C@H](CO)NC(=O)[C@H](CC(=O)O)NC(=O)[C@@H]3CSSC[C@H](NC(=O)[C@H](C)NC(=O)[C@H](CC(C)C)NC(=O)CNC(=O)[C@H](CCC(=O)O)NC(=O)[C@H](CSSC[C@H](NC(=O)[C@@H](N)Cc4ccc(O)cc4)C(=O)N[C@@H](CCC(N)=O)C(=O)N[C@@H](CCCCN)C(=O)N[C@@H](Cc4c[nH]c5ccccc45)C(=O)N[C@@H](CCSC)C(=O)N[C@@H](Cc4c[nH]c5ccccc45)C(=O)N[C@@H]([C@@H](C)O)C(=O)N3)NC2=O)C(=O)N[C@@H](CCCCN)C(=O)N[C@@H](CC(C)C)C(=O)N[C@@H](Cc2c[nH]c3ccccc23)C(=O)N1)[C@@H](C)CC)C(N)=O` [R20A], the IC50 on rNaV1.4 (setting [1]) was 2100 ± 280 nM.

On to `CC[C@H](C)[C@H](NC(=O)[C@@H](NC(=O)[C@H](CCCCN)NC(=O)[C@H](CCCNC(=N)N)NC(=O)[C@@H]1CSSC[C@@H]2NC(=O)[C@H](C)NC(=O)[C@H](CCCNC(=N)N)NC(=O)[C@H](CCCCN)NC(=O)[C@H](CO)NC(=O)[C@H](CC(=O)O)NC(=O)[C@@H]3CSSC[C@H](NC(=O)[C@H](CCCNC(=N)N)NC(=O)[C@H](CC(C)C)NC(=O)CNC(=O)[C@H](CCC(=O)O)NC(=O)[C@H](CSSC[C@H](NC(=O)[C@@H](N)Cc4ccc(O)cc4)C(=O)N[C@@H](CCC(N)=O)C(=O)N[C@@H](CCCCN)C(=O)N[C@@H](Cc4c[nH]c5ccccc45)C(=O)N[C@@H](CCSC)C(=O)N[C@@H](Cc4c[nH]c5ccccc45)C(=O)N[C@@H]([C@@H](C)O)C(=O)N3)NC2=O)C(=O)N[C@@H](C)C(=O)N[C@@H](CC(C)C)C(=O)N[C@@H](Cc2c[nH]c3ccccc23)C(=O)N1)[C@@H](C)CC)C(N)=O` [K22A], for which the IC50 on rNaV1.4 (setting [1]) is 659 ± 11 nM.

`CC[C@H](C)[C@H](NC(=O)[C@@H](NC(=O)[C@H](CCCCN)NC(=O)[C@H](CCCNC(=N)N)NC(=O)[C@@H]1CSSC[C@@H]2NC(=O)[C@H](C)NC(=O)[C@H](CCCNC(=N)N)NC(=O)[C@H](CCCCN)NC(=O)[C@H](CO)NC(=O)[C@H](CC(=O)O)NC(=O)[C@@H]3CSSC[C@H](NC(=O)[C@H](CCCNC(=N)N)NC(=O)[C@H](CC(C)C)NC(=O)CNC(=O)[C@H](CCC(=O)O)NC(=O)[C@H](CSSC[C@H](NC(=O)[C@@H](N)Cc4ccc(O)cc4)C(=O)N[C@@H](CCC(N)=O)C(=O)N[C@@H](CCCCN)C(=O)N[C@@H](Cc4c[nH]c5ccccc45)C(=O)N[C@@H](CCSC)C(=O)N[C@@H](C)C(=O)N[C@@H]([C@@H](C)O)C(=O)N3)NC2=O)C(=O)N[C@@H](CCCCN)C(=O)N[C@@H](CC(C)C)C(=O)N[C@@H](Cc2c[nH]c3ccccc23)C(=O)N1)[C@@H](C)CC)C(N)=O` [W7A]: the IC50 at rNaV1.4 (setting [1]) was found to be 1920 ± 310 nM.

The values are drawn from PMC4113750 (Toxins, 2014).
